Results from patent US20120015898A1, “COMPOUNDS AND METHODS FOR TREATMENT OF SICKLE CELL DISEASE OR COMPLICATIONS ASSOCIATED THEREWITH” (GlycoMimetics, Inc., priority 2007, published 2012).

Legend:
[1] = test system: sickle cell mice; assay: TNFα-induced vaso-occlusive crisis in sickle cell mice, intravital microscopy of cremaster venules (prevention protocol); assay type: in vivo
From the text: FIG. 6 is a schematic of the protocol for inducing a vaso-occlusive crisis (VOC) in sickle cell-affected mice and recording blood flow.
(§1) An animal model of sickle cell disease exists in fully chimeric mice constructed by bone marrow transplantation and expressing >97% human globin containing the β^S mutation. A vaso-occlusive crisis is induced by stimulation with TNFα and is monitored by observing and recording blood flow by intravital microscopy of the venules in the cremaster muscle.
(§2) Each mouse is prepared by cannulating the right carotid artery and by undergoing a tracheotomy to facilitate ventilation under anesthesia. Twenty (20) minutes prior to stimulation with TNFα, the cremaster muscle is gently exteriorized and the venules are set on a microscope stage for observation and recording of blood flow. Just prior to administration of TNFα and again prior to the recording of the venules (90 min later), Compound # 2 is administered through the cannulated carotid artery and data is obtained by monitoring blood flow and recording time of death.

[2] = test system: sickle cell mice; assay: Delayed treatment of VOC in sickle cell mice (treatment protocol); assay type: in vivo; details: control PBS
Procedure: FIG. 9 is a schematic of a sickle cell mouse model for use with both prevention and treatment protocols. The black arrows underneath Comp. #2 are for the prevention protocol. The gray arrow underneath Comp. #2 is for the treatment protocol. Recording is started at the 90 minute mark for the prevention protocol. Recording is started at the 120 minute mark for the treatment protocol.
as §1, §2

CC1OC(OC2C(NC(=O)c3cc(O)nc(O)n3)CC(C(=O)NCCNC(=O)COCCOCC(=O)Nc3cccc(CNc4cc(S(=O)(=O)O)cc5cc(S(=O)(=O)O)cc(S(=O)(=O)O)c45)c3)CC2OC2OC(CO)C(O)C(O[C@@H](CC3CCCCC3)C(=O)O)C2OC(=O)c2ccccc2)C(O)C(O)C1O (some centres unmarked) [Compound #2]
blood flow in the sickle cell mouse ([1]; after stimulation with TNFα, compound given through cannulated carotid artery just prior to TNFα and again 90 min later, FIG. 7): restoring blood flow to a velocity observed in normal mice | adhesion of sickle red blood cells (RBC) to leukocytes ([1]; sickle cell mice, TNFα-induced vaso-occlusive crisis, FIG. 8): significant inhibition of adhesion | adherent white blood cells (WBCs) ([2]; WBCs adherent to vascular endothelium, FIG. 11): significant reduction in the number of WBCs adherent to the vascular endothelium | blood flow rate ([2]; FIG. 10): normalizes the rate of blood flow | interactions of sickle red blood cells (RBCS) with leukocytes ([2]; FIG. 12): dramatically reduces interactions of sickle RBCs with leukocytes
